Earlier results on three compounds are cited in patent publication US20250082627A1, “TOBACCO HARM REDUCTION AND PAIN RELIEF PRODUCTS AND METHODS THEREOF” (Ready Mix Naturals, LLC, priority 2023, published 2025).

For one series, the target named is TRPA1 (Homo sapiens, UniProt O75762).
Another series deals with TRPV1 (Homo sapiens, UniProt Q8NER1). As to conditions: among phytocannabinoids.
For another series, the target named is T1, TRPV2 (Homo sapiens, UniProt Q9Y5S1).
T1 sequence (Q9Y5S1 1-764): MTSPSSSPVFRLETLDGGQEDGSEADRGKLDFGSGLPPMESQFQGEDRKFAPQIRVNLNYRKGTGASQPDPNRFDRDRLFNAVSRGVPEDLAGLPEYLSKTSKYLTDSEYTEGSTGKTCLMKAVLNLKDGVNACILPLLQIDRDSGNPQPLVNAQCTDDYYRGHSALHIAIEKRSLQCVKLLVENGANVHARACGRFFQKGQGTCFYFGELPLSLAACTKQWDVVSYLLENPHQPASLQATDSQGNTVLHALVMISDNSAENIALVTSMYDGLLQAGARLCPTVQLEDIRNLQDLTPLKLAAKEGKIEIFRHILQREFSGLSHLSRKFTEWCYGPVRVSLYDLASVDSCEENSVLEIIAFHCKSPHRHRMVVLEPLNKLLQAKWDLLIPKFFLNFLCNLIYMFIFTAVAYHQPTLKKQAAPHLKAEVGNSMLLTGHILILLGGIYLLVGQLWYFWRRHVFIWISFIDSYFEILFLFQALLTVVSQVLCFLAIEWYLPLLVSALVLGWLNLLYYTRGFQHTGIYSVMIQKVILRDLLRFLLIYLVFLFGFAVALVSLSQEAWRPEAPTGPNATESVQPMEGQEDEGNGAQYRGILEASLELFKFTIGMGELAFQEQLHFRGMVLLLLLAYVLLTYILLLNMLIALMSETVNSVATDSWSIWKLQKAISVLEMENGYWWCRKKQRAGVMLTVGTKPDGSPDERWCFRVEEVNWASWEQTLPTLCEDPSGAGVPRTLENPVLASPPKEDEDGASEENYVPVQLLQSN
As to conditions: among phytocannabinoids.

Sequence of TRPA1 (O75762 whole entry, species assumed): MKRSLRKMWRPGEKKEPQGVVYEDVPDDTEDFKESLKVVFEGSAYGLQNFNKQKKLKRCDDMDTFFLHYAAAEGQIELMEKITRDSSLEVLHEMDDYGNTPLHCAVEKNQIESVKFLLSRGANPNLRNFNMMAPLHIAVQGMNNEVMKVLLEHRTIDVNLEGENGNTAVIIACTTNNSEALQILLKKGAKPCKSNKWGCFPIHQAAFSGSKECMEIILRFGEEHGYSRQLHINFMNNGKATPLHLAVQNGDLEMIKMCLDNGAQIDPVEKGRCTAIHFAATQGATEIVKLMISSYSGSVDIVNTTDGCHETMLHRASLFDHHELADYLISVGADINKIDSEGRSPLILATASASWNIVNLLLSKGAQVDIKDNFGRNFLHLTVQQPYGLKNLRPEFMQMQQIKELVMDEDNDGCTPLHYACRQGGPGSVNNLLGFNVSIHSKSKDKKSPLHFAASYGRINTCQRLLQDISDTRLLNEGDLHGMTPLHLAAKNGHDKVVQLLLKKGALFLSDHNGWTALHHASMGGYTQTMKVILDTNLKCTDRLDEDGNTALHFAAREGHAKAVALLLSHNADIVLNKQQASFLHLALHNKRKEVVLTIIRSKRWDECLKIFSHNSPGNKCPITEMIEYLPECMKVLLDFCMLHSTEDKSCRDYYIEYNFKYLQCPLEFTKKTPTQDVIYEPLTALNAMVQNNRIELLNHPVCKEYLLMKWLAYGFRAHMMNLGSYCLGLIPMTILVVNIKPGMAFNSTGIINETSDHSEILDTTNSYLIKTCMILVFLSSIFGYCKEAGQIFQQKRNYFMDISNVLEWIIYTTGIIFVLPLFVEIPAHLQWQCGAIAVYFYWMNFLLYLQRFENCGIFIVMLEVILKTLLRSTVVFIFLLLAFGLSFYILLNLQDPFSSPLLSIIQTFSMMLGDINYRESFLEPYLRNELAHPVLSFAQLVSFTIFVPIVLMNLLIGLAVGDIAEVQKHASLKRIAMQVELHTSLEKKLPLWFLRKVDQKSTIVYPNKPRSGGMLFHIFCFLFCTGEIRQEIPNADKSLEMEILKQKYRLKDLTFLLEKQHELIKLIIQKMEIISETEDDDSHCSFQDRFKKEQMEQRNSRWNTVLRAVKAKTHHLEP
Sequence of TRPV1 (Q8NER1 whole entry, species assumed): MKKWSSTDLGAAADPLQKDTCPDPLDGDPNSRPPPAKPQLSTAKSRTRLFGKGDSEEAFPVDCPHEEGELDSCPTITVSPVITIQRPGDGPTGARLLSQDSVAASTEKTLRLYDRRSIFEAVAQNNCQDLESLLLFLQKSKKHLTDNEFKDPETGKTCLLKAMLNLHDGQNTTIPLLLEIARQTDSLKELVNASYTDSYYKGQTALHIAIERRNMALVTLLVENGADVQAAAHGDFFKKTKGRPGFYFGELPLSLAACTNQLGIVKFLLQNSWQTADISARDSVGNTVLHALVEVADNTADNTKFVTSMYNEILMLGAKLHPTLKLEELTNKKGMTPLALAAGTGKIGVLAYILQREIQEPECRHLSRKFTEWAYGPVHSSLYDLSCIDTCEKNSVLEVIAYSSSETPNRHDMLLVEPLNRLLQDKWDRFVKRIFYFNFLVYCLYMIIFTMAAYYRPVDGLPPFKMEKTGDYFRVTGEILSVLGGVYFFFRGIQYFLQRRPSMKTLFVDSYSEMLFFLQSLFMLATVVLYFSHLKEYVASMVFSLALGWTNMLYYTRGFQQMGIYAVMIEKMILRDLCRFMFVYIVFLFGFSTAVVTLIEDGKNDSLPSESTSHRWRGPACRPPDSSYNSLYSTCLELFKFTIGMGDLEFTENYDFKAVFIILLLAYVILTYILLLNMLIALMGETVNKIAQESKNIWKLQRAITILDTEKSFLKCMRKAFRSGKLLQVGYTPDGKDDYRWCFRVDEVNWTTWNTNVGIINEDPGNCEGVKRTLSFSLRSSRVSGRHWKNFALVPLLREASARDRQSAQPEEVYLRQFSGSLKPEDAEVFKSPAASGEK

In the case of `CN1CCCC1c1cccnc1` (stereo not shown) [nicotine], the “activation of TRPA1” value at TRPA1 is on record as “known activator of TRPA1”.

Turning to `C=C(C)[C@@H]1CCC(C)=C[C@H]1c1c(O)cc(CCCCC)cc1O` [CBD, cannabidiol], the “agonism of TRPV1” value on TRPV1 is “most potent and efficacious phytocannabinoid agonist of TRPV1”.

Regarding `CCCCCc1cc(O)c2c(c1)OC(C)(C)[C@@H]1CCC(C)=C[C@@H]21` [Δ^9-THC, Δ^9-tetrahydrocannabinol], on TRPA1, the “activation of TRPA1” value is recorded as “also activates TRPA1”. Besides, the “activation of TRPV2” value at TRPV2 was “most potent phytocannabinoid for activating TRPV2”.
